{
  "source": "paper PMC6120666",
  "about": "(The EMBO Journal, 2018)",
  "key": {"[1]": {"tested_on": "U2OS/NOD2, THP1, RAW264.7 and HEKBlue cells", "test": "CellTiter-Glo viability assay", "format": "cell-based", "conditions": "U2OS/NOD2, THP1, RAW264.7, HEKBlue; 24 h; up to 1 µM", "experimental": "Cell viability was determined using CellTiter‐Glo assay (Promega). […] Kinase activities were determined using ADPGlo assay (Promega). • Structure of the active conformation of RIPK2 kinase domain in complex with AMP‐PNP (PDB ID: 5AR3). Figure depicts locations of the adenine and deep pockets. […] Key residues discussed in the text are shown as sticks (Lys/Glu Glu‐in bond—bottom left, catalytic Asp residues (Asp146/Asp164)—bottom right, R‐spine—right). P‐loop of CSLP18 structure is shown in yellow. Structured segment of activation segment (AS) observed in active conformation structures is shown in red. • Structure of RIPK2 kinase domain (gray ribbons) in complex with CSLP18 (orange) (PDB ID 6FU5). Sticks are shown for residues in the vicinity of the cavity surrounding the key inhibitor position R1. A 2Fo‐Fc electron density map contoured at 1 sigma is shown for the inhibitor and the residues lining the key region around inhibitor R^1 position. • Molecular docking model of RIPK2 kinase domain in complex with CSLP37 (yellow) based on RIPK2/CSLP18 structure (Fig 3D). […]\nGST-BIR2-XIAP as indicated. Intensity quantification of SPOTs was performed using ImageJ software (Schneider et al., 2012). […]\nfor cell death) or vehicle for 24h. Viability was determined using the CellTiter-Glo® luminescent cell […]"}, "[2]": {"biological_target": "T1, proteins of U2OS cell lysate (Homo sapiens, UniProt P25787)", "T1 construct": "Proteins enriched by c-ponatinib from U2OS cell lysate; endogenous in cells; host or cells: U2OS cell lysate", "T1 sequence (P25787 whole entry)": "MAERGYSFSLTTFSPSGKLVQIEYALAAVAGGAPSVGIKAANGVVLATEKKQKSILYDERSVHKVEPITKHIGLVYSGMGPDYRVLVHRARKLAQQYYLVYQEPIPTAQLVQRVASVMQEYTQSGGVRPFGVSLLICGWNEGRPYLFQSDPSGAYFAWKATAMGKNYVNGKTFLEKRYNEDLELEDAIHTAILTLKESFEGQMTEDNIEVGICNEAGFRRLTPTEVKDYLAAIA", "test": "Drug affinity chromatography with c-ponatinib and LC-MS/MS (ponatinib interactome)", "format": "binding", "conditions": "captured protein PSMA2, Rank 214", "how_it_was_run": "(§1)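 U2OS cell lysate in NP-40 lysis buffer (2 mg protein per pulldown) was incubated with amine-derivatized NHS beads for 2 h at 4 °C. Bound proteins were washed, eluted with 100 mM formic acid, reduced, alkylated and trypsin-digested, then identified by nano-UPLC–MS/MS on Orbitrap instruments with a 60 min gradient.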"}, "[3]": {"biological_target": "T2, proteins of U2OS cell lysate (Homo sapiens, UniProt Q9NYJ8)", "T2 construct": "Proteins enriched by c-ponatinib from U2OS cell lysate; endogenous in cells; host or cells: U2OS cell lysate", "T2 sequence (Q9NYJ8 whole entry)": "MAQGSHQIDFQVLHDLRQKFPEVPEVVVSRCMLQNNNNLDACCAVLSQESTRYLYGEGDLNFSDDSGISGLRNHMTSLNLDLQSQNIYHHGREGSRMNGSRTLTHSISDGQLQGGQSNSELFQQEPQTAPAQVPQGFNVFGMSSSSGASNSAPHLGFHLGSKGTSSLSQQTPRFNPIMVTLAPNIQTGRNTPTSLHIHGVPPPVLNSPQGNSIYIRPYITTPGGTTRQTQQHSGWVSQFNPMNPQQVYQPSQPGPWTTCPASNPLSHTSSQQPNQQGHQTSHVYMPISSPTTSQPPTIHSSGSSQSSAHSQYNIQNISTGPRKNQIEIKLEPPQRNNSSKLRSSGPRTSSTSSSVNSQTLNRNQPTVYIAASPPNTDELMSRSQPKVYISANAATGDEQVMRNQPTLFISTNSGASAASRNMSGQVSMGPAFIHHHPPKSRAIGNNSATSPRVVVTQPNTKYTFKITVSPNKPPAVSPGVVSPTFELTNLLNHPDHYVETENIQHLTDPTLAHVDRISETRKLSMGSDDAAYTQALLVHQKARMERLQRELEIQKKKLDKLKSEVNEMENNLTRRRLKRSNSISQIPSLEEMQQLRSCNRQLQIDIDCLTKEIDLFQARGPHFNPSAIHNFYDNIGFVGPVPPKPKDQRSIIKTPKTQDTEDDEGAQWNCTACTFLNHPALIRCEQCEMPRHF", "test": "Drug affinity chromatography with c-ponatinib and LC-MS/MS (ponatinib interactome)", "format": "binding", "conditions": "TAB2, TGF-beta-activated kinase 1 and MAP3K7-binding protein 2", "how_it_was_run": "as §1"}, "[4]": {"biological_target": "T3, proteins of U2OS cell lysate (Homo sapiens, UniProt O94921)", "T3 construct": "Proteins enriched by c-ponatinib from U2OS cell lysate; endogenous in cells; host or cells: U2OS cell lysate", "T3 sequence (O94921 whole entry)": "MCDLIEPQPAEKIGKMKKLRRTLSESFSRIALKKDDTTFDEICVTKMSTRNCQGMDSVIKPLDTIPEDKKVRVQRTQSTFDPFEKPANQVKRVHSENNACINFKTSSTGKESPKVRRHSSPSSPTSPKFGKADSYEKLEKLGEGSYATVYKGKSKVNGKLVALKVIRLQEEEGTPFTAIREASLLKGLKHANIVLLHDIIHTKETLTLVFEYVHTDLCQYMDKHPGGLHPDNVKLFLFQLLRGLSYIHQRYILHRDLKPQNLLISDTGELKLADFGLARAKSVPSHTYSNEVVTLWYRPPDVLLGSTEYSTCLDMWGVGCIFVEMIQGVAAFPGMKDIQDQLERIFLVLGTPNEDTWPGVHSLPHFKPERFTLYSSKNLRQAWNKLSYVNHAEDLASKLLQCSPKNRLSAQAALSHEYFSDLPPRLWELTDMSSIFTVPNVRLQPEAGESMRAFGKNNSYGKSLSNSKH", "test": "Drug affinity chromatography with c-ponatinib and LC-MS/MS (ponatinib interactome)", "format": "binding", "conditions": "CDK14, Cyclin-dependent kinase 14", "how_it_was_run": "as §1"}, "[5]": {"biological_target": "T4, proteins of U2OS cell lysate (Homo sapiens, UniProt P38646)", "T4 construct": "Proteins enriched by c-ponatinib from U2OS cell lysate; endogenous in cells; host or cells: U2OS cell lysate", "T4 sequence (P38646 47-679)": "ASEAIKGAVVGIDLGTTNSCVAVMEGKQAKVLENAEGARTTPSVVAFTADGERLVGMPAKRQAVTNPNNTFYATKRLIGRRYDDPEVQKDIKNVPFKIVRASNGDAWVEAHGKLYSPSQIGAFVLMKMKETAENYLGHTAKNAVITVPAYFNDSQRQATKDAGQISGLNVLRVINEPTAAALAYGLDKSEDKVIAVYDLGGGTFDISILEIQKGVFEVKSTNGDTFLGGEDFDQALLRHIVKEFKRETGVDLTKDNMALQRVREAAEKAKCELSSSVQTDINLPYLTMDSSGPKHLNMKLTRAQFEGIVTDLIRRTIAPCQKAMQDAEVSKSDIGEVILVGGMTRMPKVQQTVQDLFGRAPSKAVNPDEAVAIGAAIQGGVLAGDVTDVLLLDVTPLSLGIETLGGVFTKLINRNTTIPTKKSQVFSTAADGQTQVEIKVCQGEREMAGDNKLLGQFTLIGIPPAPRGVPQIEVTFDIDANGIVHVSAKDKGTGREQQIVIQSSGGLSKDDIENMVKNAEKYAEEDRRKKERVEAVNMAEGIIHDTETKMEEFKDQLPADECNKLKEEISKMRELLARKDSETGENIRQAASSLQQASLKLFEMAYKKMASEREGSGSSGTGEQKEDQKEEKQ", "test": "Drug affinity chromatography with c-ponatinib and LC-MS/MS (ponatinib interactome)", "format": "binding", "conditions": "HSPA9, Stress-70 protein, mitochondrial", "how_it_was_run": "as §1"}, "[6]": {"biological_target": "T5, proteins of U2OS cell lysate (Homo sapiens, UniProt P60174)", "T5 construct": "Proteins enriched by c-ponatinib from U2OS cell lysate; endogenous in cells; host or cells: U2OS cell lysate", "T5 sequence (P60174 whole entry)": "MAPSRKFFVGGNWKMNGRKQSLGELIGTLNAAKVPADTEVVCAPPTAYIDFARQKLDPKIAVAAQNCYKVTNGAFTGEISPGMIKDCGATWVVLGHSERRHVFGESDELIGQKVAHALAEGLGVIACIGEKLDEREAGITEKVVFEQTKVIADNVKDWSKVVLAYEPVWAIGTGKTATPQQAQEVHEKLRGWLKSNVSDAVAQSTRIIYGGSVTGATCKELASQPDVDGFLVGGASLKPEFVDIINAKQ", "test": "Drug affinity chromatography with c-ponatinib and LC-MS/MS (ponatinib interactome)", "format": "binding", "conditions": "TPI1, Triosephosphate isomerase", "how_it_was_run": "as §1"}, "[7]": {"biological_target": "T6, proteins of U2OS cell lysate (Homo sapiens, UniProt P36542)", "T6 construct": "Proteins enriched by c-ponatinib from U2OS cell lysate; endogenous in cells; host or cells: U2OS cell lysate", "T6 sequence (P36542 26-298)": "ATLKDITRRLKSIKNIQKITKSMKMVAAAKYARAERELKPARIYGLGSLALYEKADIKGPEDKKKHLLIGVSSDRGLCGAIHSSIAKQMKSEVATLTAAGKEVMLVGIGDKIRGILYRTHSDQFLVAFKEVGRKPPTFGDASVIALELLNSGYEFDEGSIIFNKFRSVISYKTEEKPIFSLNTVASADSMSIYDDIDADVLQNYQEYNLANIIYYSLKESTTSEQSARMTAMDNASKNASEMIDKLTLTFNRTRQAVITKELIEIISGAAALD", "test": "Drug affinity chromatography with c-ponatinib and LC-MS/MS (ponatinib interactome)", "format": "binding", "conditions": "ATP5C1, ATP synthase subunit gamma, mitochondrial", "how_it_was_run": "as §1"}, "[8]": {"biological_target": "T7, proteins of U2OS cell lysate (Homo sapiens, UniProt Q14203)", "T7 construct": "Proteins enriched by c-ponatinib from U2OS cell lysate; endogenous in cells; host or cells: U2OS cell lysate", "T7 sequence (Q14203 whole entry)": "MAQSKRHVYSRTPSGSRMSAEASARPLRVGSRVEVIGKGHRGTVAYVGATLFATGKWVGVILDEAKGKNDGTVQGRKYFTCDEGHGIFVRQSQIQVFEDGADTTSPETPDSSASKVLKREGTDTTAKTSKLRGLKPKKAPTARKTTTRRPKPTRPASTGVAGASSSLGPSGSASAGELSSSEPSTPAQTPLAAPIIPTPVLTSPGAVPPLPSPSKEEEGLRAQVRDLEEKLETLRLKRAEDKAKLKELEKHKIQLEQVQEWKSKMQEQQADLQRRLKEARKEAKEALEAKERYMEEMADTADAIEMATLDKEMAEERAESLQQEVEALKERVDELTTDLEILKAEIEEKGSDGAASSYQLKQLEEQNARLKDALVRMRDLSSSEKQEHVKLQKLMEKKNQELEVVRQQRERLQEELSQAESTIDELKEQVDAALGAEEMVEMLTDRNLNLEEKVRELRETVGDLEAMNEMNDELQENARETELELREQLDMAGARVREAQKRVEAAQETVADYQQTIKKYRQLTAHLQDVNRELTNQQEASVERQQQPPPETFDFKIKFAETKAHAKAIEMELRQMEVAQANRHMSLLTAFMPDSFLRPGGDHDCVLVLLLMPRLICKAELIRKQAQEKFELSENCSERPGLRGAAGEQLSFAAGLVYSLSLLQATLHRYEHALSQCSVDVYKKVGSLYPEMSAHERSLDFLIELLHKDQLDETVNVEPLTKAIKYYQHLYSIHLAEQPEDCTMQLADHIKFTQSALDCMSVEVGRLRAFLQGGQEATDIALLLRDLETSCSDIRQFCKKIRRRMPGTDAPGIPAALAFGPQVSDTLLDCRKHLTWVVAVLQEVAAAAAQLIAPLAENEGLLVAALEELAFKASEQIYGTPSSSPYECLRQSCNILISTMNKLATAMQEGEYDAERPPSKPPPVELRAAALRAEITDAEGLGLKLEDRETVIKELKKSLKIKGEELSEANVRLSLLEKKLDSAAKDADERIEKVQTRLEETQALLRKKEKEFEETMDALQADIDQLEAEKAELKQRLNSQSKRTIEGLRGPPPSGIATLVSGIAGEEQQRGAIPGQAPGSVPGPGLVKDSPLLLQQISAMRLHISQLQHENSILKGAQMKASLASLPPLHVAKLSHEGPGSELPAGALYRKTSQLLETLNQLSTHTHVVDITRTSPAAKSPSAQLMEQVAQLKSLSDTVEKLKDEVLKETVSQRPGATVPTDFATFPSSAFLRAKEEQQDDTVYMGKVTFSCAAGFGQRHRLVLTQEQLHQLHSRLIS", "test": "Drug affinity chromatography with c-ponatinib and LC-MS/MS (ponatinib interactome)", "format": "binding", "conditions": "DCTN1, Dynactin subunit 1", "how_it_was_run": "as §1"}, "[9]": {"biological_target": "T8, proteins of U2OS cell lysate (Homo sapiens, UniProt P78527)", "T8 construct": "Proteins enriched by c-ponatinib from U2OS cell lysate; endogenous in cells; host or cells: U2OS cell lysate", "test": "Drug affinity chromatography with c-ponatinib and LC-MS/MS (ponatinib interactome)", "format": "binding", "conditions": "PRKDC, DNA-dependent protein kinase catalytic subunit", "how_it_was_run": "as §1"}, "[10]": {"biological_target": "T9, proteins of U2OS cell lysate (Homo sapiens, UniProt P60953)", "T9 construct": "Proteins enriched by c-ponatinib from U2OS cell lysate; endogenous in cells; host or cells: U2OS cell lysate", "T9 sequence (P60953 whole entry)": "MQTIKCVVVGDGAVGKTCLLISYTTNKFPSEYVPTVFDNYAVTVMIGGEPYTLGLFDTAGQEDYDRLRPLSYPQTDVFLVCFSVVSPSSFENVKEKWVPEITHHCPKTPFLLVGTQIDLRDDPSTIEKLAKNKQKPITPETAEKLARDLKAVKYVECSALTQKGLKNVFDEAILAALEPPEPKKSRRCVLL", "test": "Drug affinity chromatography with c-ponatinib and LC-MS/MS (ponatinib interactome)", "format": "binding", "conditions": "CDC42, Cell division control protein 42 homolog", "how_it_was_run": "as §1"}, "[11]": {"biological_target": "T10, proteins of U2OS cell lysate (Homo sapiens, UniProt P14314)", "T10 construct": "Proteins enriched by c-ponatinib from U2OS cell lysate; endogenous in cells; host or cells: U2OS cell lysate", "T10 sequence (P14314 15-528)": "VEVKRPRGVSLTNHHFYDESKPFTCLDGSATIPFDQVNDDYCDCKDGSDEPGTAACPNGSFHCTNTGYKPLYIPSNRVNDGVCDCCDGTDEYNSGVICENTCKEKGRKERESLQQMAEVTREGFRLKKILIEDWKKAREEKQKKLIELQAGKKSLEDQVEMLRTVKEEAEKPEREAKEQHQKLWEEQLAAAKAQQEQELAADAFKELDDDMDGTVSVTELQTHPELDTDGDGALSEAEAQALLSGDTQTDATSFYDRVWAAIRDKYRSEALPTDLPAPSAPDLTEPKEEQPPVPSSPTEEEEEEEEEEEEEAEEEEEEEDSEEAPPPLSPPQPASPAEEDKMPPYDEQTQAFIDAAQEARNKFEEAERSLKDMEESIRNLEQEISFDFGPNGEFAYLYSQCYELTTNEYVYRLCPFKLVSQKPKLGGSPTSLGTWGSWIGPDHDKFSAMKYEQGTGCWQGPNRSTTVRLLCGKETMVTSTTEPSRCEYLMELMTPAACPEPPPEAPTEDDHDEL", "test": "Drug affinity chromatography with c-ponatinib and LC-MS/MS (ponatinib interactome)", "format": "binding", "conditions": "PRKCSH, Glucosidase 2 subunit beta", "how_it_was_run": "as §1"}},
  "data": [
    {"smiles": "CCCS(=O)(=O)Nc1cc(-c2cc(-c3ccc(N4CCNCC4)cc3)cnc2N)cc(OC)c1OC", "note": "[CSLP43]", "values": [
      {"measurement": "toxicity in the cell lines used", "setting": "[1]", "result": "did not have measurable toxicity"}
    ]},
    {"smiles": "Cc1ccc(C(=O)Nc2ccc(CN3CCN(CCCN)CC3)c(C(F)(F)F)c2)cc1C#Cc1cnc2cccnn12", "note": "[c-ponatinib, reference compound]", "values": [
      {"measurement": "Average LFQ intensity", "setting": "[2]", "result": 21.6987}
    ]},
    {"smiles": "Cc1ccc(C(=O)Nc2ccc(CN3CCN(C)CC3)c(C(F)(F)F)c2)cc1C#Cc1cnc2cccnn12", "note": "[PON]", "values": [
      {"measurement": "Average LFQ PON_WT", "setting": "[3]", "result": 24.3605},
      {"measurement": "Average LFQ PON_WT", "setting": "[4]", "result": 25.6287},
      {"measurement": "Average LFQ PON_WT", "setting": "[5]", "result": 24.6608},
      {"measurement": "Average LFQ PON_WT", "setting": "[6]", "result": 20.2344},
      {"measurement": "Average LFQ PON_WT", "setting": "[7]", "result": 21.058},
      {"measurement": "Average LFQ PON_WT", "setting": "[8]", "result": 21.0359},
      {"measurement": "Average LFQ PON_WT", "setting": "[9]", "result": 25.5794},
      {"measurement": "Average LFQ PON_WT", "setting": "[10]", "result": 20.531},
      {"measurement": "Average LFQ PON_WT", "setting": "[11]", "result": 21.2991}
    ]},
    {"smiles": "CCCS(=O)(=O)Nc1cc(-c2cc(-c3ccc(N4CCNCC4)cc3)cnc2N)cc(F)c1OC", "note": "[CSLP37]", "values": [
      {"measurement": "toxicity in the cell lines used", "setting": "[1]", "result": "did not have measurable toxicity"}
    ]}
  ]
}
